Measurements as given in patent publication US20210317090A1, “AMINO ACID DEPLETION AGENTS AS ANTIPROLIFERATIVE AGENTS” (University of Central Florida Research Foundation, Inc., priority 2018, published 2021).
Read-outs that look alike come from different tables or passages of the source.

Columns and labels:
L3.6pl cells [1] = experiment: Intracellular polyamine and Ant-44 levels (N-dansylation, HPLC) in L3.6pl cells; assay type: cell-based, human; details: 3.3 μM compound 10 (SR isomer), FIG. 10I
[2] = system: L3.6pl human pancreatic cancer cells; experiment: Cytotoxicity dose-response (MTS) in L3.6pl cells; assay type: cell-based; details: for IC50: Homo sapiens, L3.6pl cells
Procedure: L3.6pl Studies. Compounds 9 and 10 were evaluated in the metastatic human pancreatic cancer cell line, L3.6pl. L3.6pl has a K-ras mutation, and high polyamine uptake activity.^7 A dose-response curve was obtained for each compound in L3.6pl cells to determine the 72 h L3.6pl IC50 value, described as the dose at which L3.6pl cells were 50% viable compared to the untreated control.
Regarding the biological studies performed in the following examples, it is noted that CHO K1, CHO-MG, and L3.6pl cells were grown in RPMI 1640 medium supplemented with 10% fetal bovine serum (FBS) and 1% penicillin/streptomycin. All cells were grown at 37° C. under a humidified 5% CO2 atmosphere. Aminoguanidine (1 mM used for CHO K1 and CHOMG cells and 250 μM for L3.6pl) was added to the growth medium to prevent oxidation of the compounds of the bovine serum amine oxidase enzyme that is present in calf serum. The cells used were in early to mid log phase and CHO and CHOMG were plated out at 1000 cells/well, whereas the L3.6pl cells were plated at 500 cells/well in a 96 well plate format.
This example illustrates aspects according to various embodiments pertaining to IC50 determinations and cell viability studies. Cell growth was assayed in sterile 96-well microtiter plates (Costar 3599, Corning, N.Y.). CHO K1 or CHOMG cells were plated at 1,000 cells/70 μL and L3.6pl cells at 500 cells/70 μL. The drug solutions of appropriate concentration in phosphate buffered saline (PBS) were added 10 μL per well after overnight incubation. After drug exposure (e.g., for 48 h for CHO K1 and CHO-MG and 48 h or 72 h for L3.6pl), cell growth was determined by measuring formazan formation from the 3-(4,5dimethylthiazol-2-yl)-5-(3-carboxymethoxyphenyl)-2-(4-sulfenyl)-2H tetrazolium, inner salt (MTS) using SynergyMx Biotek microplate reader for absorbance (490 nm) measurements.^27 All experiments were run in triplicate.

L3.6pl cells [3] = experiment: Analytes in supernatant of L3.6pl cells (LCMS); assay type: cell-based, human; details: 72 h
Text: One way to affect both spermidine and spermine pools is to decrease methionine supply, which in turn would inhibit the formation of the decarboxylated S-adenosylmethionine needed to provide the aminopropyl fragment required for spermidine and spermine synthesis. Since methionine, leucine and phenylalanine all use the LAT1/SLC3A2 transporter to enter cells, it was hypothesized that 10 was inhibiting LAT-1 mediated amino acid import. To test this hypothesis, the development of various embodiments involved measuring the amino acid concentrations in the supernatants of cells incubated with compound 10 at 2 and 5 μM for 72 h.
This example illustrates aspects according to various embodiments pertaining to a 72 h experiment with Compound 10 in L3.6pl cells. Ten milliliters of a cell suspension containing L3.6pl human pancreatic cancer cells (50,000 cells/mL) and aminoguanidine ([…]) were placed in treated plastic Petri dishes (d=9 cm) and incubated overnight at 37° C. After 24 h, the cells were dosed with compound 10 at 2 μM, 5 μM, or 7 μM. (Note: Stock solutions of 10 at 2, 5, and 7 mM were dissolved in phosphate buffered saline (PBS) and were filtered through a 0.2 μm filter prior to use. The experiments were maintained with a total volume of 10.01 mL where 10 mL of the cell suspension was placed in a plastic dish and each compound or the equivalent PBS volume was added to make up the total volume 10.01 mL for each dish. For example, for the control experiment PBS (10 μL) was added to make up the total volume (10 mL+10 μL=10.01 mL). After 72 h incubation, the cells were collected first by pipetting off the supernatant containing floating dead cells from the culture dish as well as media and placing them into 15 mL tubes. The supernatant containing floating cells was centrifuged (4 min at 1,000 rpm). The cell-free supernatant (supernatant #1) was collected into a new 15 mL tube and quantified (˜8.6 mL) and was then stored frozen and was later quantified by LCMS to investigate the media composition of particular polyamine and amino acid analytes. The attached cells on the dish were washed with PBS (5 mL). The PBS wash was removed by suction and additional PBS (2 mL) was added and again suctioned off to provide twice-washed cells still adhered to the dish. Trypsin (2 mL) was then added to each dish and incubated (3-5 min) until all the cells were detached. Fresh media (8 mL) was added to quench the trypsin. The cell solutions were pipetted into separate 15 mL tubes and centrifuged (4 min at 1,000 rpm). The resulting supernatant was removed to provide a pellet. The pellet was suspended in PBS (10 mL) and was counted by a hemocytometer to provide cell counts for each experimental condition. The pellet was then centrifuged (4 min at 1,000 rpm) and the supernatant removed and the remaining pellet was quantified via protein and polyamine analysis.
This example illustrates aspects according to various embodiments pertaining to an LCMS Analysis. The respective supernatant (10 μL) was injected on a Thermo HPLC system equipped with PAL CTC plate sampler (96-well plate), Dionex Ultimate 3000 binary pump (flow rate at 0.25 mL/min), Dionex Ultimate 3000 thermostatted column compartment (temperature at 40° C.), Thermo Endura Mass Spectrometer (ESI source), using Thermo Scientific Accucore C18 (2.6 μm, 2.1×50 mm, 100 Å) column under a gradient of acetonitrile w/0.1% heptafluorobutyric acid (HFBA) in H2O w/0.1% HFBA from 2% at minute 0 to 60% at minute 5.0, to 99% at minute 6.5 held until minute 7.5 and then reduced back to 2% until minute 10 to re-equilibrate the column for the next injection. The peak area was measured and analyte amounts were calculated referring to analyte calibration curves. Analyte levels were adjusted with internal standard concentration for extraction efficiency. Peak height measurements were conducted referring to values obtained for standards of known concentrations. […]

SMILES: CC(C)CCN1CCN(C(CNCc2ccccc2)CC2CCCCC2)CC1CC(C)C.Cl.Cl.Cl (centres unmarked) [Compound 10, Benzyl-{3-cyclohexyl-2-[3-isobutyl-4-(3-methyl-butyl)-piperazin-1-yl]-propyl}-amine trihydrochloride salt]
- intracellular levels of polyamine metabolites (L3.6pl cells [1]): lower levels of polyamines and N-acetylspermine
- IC50 ([2]; 48 h, read-out: 48 h IC50): 3.48 ± 0.3 µM
- IC50 ([2]; 72 h, read-out: 72 h IC50): 5.9 ± 0.2 µM
- toxicity of compound alone ([2]; L3.6pl, second highest concentration tested (1 μM), 72 h): nontoxic
- toxicity to L3.6pl cancer cells relative to CHO K1 and CHO-MG cell lines ([2]; from 48 h IC50 values): approximately three fold more toxic
- Supernatant level Acetyl spermidine (L3.6pl cells [3]; 2 μM): 1649 ± 18 pmoles/mg protein
- Supernatant level Acetyl spermine (L3.6pl cells [3]; 2 μM): 49 ± 10 pmoles/mg protein
- Supernatant level Agmatine (L3.6pl cells [3]; 2 μM): 297 ± 163 pmoles/mg protein
- Supernatant level Arginine (L3.6pl cells [3]; 2 μM): 18396 ± 70 pmoles/mg protein
- Supernatant level Glutamic acid (L3.6pl cells [3]; 2 μM): 20231 ± 649 pmoles/mg protein
- Supernatant level Leucine (L3.6pl cells [3]; 2 μM): 15055 ± 1043 pmoles/mg protein
- Supernatant level Methionine (L3.6pl cells [3]; 2 μM): 17686 ± 2432 pmoles/mg protein
- Supernatant level Ornithine (L3.6pl cells [3]; 2 μM): 9249 ± 306 pmoles/mg protein
- Supernatant level Phenylalanine (L3.6pl cells [3]; 2 μM): 11954 ± 828 pmoles/mg protein
- Supernatant level Putrescine (L3.6pl cells [3]; 2 μM): 938 ± 70 pmoles/mg protein
- Supernatant level Spermidine (L3.6pl cells [3]; 2 μM): 131 ± 26 pmoles/mg protein
- Supernatant level Spermine (L3.6pl cells [3]; 2 μM): 2532 ± 406 pmoles/mg protein
- Supernatant level Acetyl spermidine (L3.6pl cells [3]; 5 μM): 1706 ± 29 pmoles/mg protein
- Supernatant level Acetyl spermine (L3.6pl cells [3]; 5 μM): 36 ± 4 pmoles/mg protein
- Supernatant level Agmatine (L3.6pl cells [3]; 5 μM): 485 ± 176 pmoles/mg protein
- Supernatant level Arginine (L3.6pl cells [3]; 5 μM): 43243 ± 2047 pmoles/mg protein
- Supernatant level Glutamic acid (L3.6pl cells [3]; 5 μM): 34033 ± 540 pmoles/mg protein
- Supernatant level Leucine (L3.6pl cells [3]; 5 μM): 202092 ± 23817 pmoles/mg protein
- Supernatant level Methionine (L3.6pl cells [3]; 5 μM): 64036 ± 5454 pmoles/mg protein
- Supernatant level Ornithine (L3.6pl cells [3]; 5 μM): 15951 ± 118 pmoles/mg protein
- Supernatant level Phenylalanine (L3.6pl cells [3]; 5 μM): 160462 ± 18910 pmoles/mg protein
- Supernatant level Putrescine (L3.6pl cells [3]; 5 μM): 2224 ± 98 pmoles/mg protein
- Supernatant level Spermidine (L3.6pl cells [3]; 5 μM): 167 ± 32 pmoles/mg protein
- Supernatant level Spermine (L3.6pl cells [3]; 5 μM): 2690 ± 889 pmoles/mg protein
